Experimental data from patent US9290453B2 (Merck Sharp & Dohme Corp., priority 2010, dated 2016).

target: T1, hCRTH2 (Homo sapiens, UniProt Q9Y5Y4); assay: Radioligand Binding Assay A ([3H]PGD2 filtration binding, HEK-hCRTH2 membranes); details: Table A, rated A-D
T1 construct: expressed in transfected cells; host or cells: HEK (human embryonic kidney) cells expressing hCRTH2
T1 sequence (Q9Y5Y4 1-395): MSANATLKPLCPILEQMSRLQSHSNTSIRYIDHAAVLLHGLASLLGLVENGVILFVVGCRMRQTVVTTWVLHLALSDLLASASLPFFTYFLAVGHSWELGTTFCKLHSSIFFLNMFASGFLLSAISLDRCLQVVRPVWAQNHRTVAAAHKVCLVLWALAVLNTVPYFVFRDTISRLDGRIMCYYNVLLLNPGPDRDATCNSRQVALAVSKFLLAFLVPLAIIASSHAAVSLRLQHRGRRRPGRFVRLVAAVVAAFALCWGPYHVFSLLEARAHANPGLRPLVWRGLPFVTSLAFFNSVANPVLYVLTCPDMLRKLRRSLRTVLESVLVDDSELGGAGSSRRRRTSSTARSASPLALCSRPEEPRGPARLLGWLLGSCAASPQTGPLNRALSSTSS
Method: Radioligand binding assays were performed at room temperature in 50 mM Tris-HCl pH 7.4, 1 mM EDTA containing 2 mM MnCl2 and 3.0 nM [^3H]PGD2 (New England Nuclear, Boston, Mass.) (171 Ci mmol^−1), in a final volume of 0.2 ml. Competing ligands were diluted in dimethylsulfoxide (Me2SO) that was kept constant at 1% (v/v) of the final incubation volume. The reaction was initiated by the addition of 8-20 μg of membrane protein prepared from a human embryonic kidney (HEK)-hCRTH2 cell line. Total and non-specific binding were determined in the absence and the presence of 10 μM PGD2, respectively. Under these conditions, specific binding (total minus non-specific) of the radioligand to the receptor reached equilibrium within 50 min and was stable up to 180 min. The reaction was routinely conducted for 60 min at room temperature and terminated by rapid filtration through prewetted (0.3% polyethyleneimine) 96-well printed Filtermate™ (Wallac) using a Tomtec® harvester (Hamden, Conn.). After washing with cold buffer, the filter was dried for 2 minutes in microwave, and Meltilex Scintillator sheet (Wallac) was melted on for 2 min. The radioactivity was measured with Betaplate model 1205 (Wallac).

Row | SMILES | Ki [nM]
1 | O=C(O)CCCCc1nc2cc(C(=O)N3CCC[C@H](c4ccccc4)C3)ccc2cc1-c1ccccc1 [Compound 3K, 3-phenyl-7-[(3(R)-phenyl-1-piperidinyl)carbonyl]-2-quinolinepentanoic acid] | 2.1 to 20
2 | C[C@H](NC(=O)c1ccc2cc(-c3ccccc3)c(CCCCC(=O)O)nc2c1)c1ccc(Cl)cc1 [Compound 3G, 7-[[[1(S)-(4-chlorophenyl)ethyl]amino]carbonyl]-3-phenyl-2-quinolinepentanoic acid] | 2.1 to 20
3 | C[C@@H](CNC(=O)c1ccc2nc(-c3ccc(F)cc3)c(CCCCC(=O)O)cc2c1)c1ccccc1 [Compound 5AB, (R)-5-(2-(4-fluorophenyl)-6-((2-phenylpropyl)carbamoyl)quinolin-3-yl)pentanoic acid] | 2.1 to 20
4 | O=C(O)CCCCc1cc2cc(C(=O)NCc3cccc(Cl)c3)ccc2nc1-c1ccccc1 [Compound 1D, 6-[[[(3-chlorophenyl)methyl]amino]carbonyl]-2-phenyl-3-quinolinepentanoic acid] | 2.1 to 20
5 | O=C(O)CCCCc1cc2cc(C(=O)NCc3cccnc3)ccc2nc1-c1ccccc1 [Compound 1X, 2-phenyl-6-[[(3-pyridinylmethyl)amino]carbonyl]-3-quinolinepentanoic acid] | 20.1 to 200
6 | O=C(O)CCCCc1nc2cc(C(=O)N3CCC[C@@H](c4ccccc4)C3)ccc2cc1-c1ccccc1 [Compound 3J, 3-phenyl-7-[(3(S)-phenyl-1-piperidinyl)carbonyl]-2-quinolinepentanoic acid] | 20.1 to 200
7 | C[C@@H](NC(=O)c1ccc2cc(-c3ccccc3)c(CCCCC(=O)O)nc2c1)c1ccc(F)cc1 [Compound 4E, (R)-5-(7-(1-(4-fluorophenyl)ethylcarbamoyl)-3-phenylquinolin-2-yl)pentanoic acid] | 0.1 to 2
8 | O=C(O)CCCCc1cc2cc(C(=O)N[C@H](c3cc(Cl)cc(Cl)c3)C(F)(F)F)cnc2nc1-c1ccc(F)cc1 [Compound 6Q, 6-[[[1(R)-(3,5-dichlorophenyl)-2,2,2-trifluoroethyl]amino]carbonyl]-2-(4-fluorophenyl)-1,8-naphthyridine-3-pentanoic acid] | 2.1 to 20
9 | O=C(O)CCCCc1cc2cc(C(=O)NCc3ccc(C(F)(F)F)cc3)ccc2nc1-c1ccccc1 [Compound 1F, 2-phenyl-6-[[[[4-(trifluoromethyl)phenyl]methyl]amino]carbonyl]-3-quinolinepentanoic acid] | 2.1 to 20
10 | O=C(O)CCCCc1nc2cc(C(=O)NCc3ccc(OC(F)(F)F)cc3)ccc2cc1-c1ccccc1 [Compound 3, 5-(3-phenyl-7-(4-(trifluoromethoxy)benzylcarbamoyl)quinolin-2-yl)pentanoic acid] | 2.1 to 20
11 | C[C@@H](NC(=O)c1ccc2nc(-c3ccccc3)c(CCCCC(=O)O)cc2c1)c1ccccc1 [Compound 1S, 2-phenyl-6-[[(l(R)-phenylethyl)amino]carbonyl]-3-quinolinepentanoic acid] | 2.1 to 20
12 | O=C(O)CCCCc1nc2cc(C(=O)N3CC[C@H](c4ccccc4)C3)ccc2cc1-c1ccccc1 [Compound 3i, 3-phenyl-7-[(3(R)-phenyl-1-pynolidinyl)carbonyl]-2-quinolinepentanoic acid] | 2.1 to 20
13 | O=C(O)CCCCc1cc2cc(C(=O)N[C@@H]3CCc4cc(Cl)ccc43)ccc2nc1-c1ccc(F)cc1 [Compound 5o, 6-[[(5-chloro-2,3-dihydro-1H-inden-1(R)-yl)amino]carbonyl)-2-(4-fluorophenyl)-3-quinolinepentanoic acid] | 2.1 to 20
14 | O=C(O)CCCCc1cc2cc(C(=O)N[C@H](c3ccccc3)C(F)(F)F)ccc2nc1-c1ccccc1 [Compound 1H, 2-phenyl-6-[[(2,2,2-trifluoro-1(R)-phenylethyl)amino]carbonyl]-3-quinolinepentanoic acid] | 2.1 to 20
15 | N#Cc1ccc([C@@H](NC(=O)c2ccc3nc(-c4ccc(F)cc4)c(CCCCC(=O)O)cc3c2)C(F)(F)F)cc1 [Compound 5Q, 6-[[[1(R)-(4-cyanophenyl)-2,2,2-trifluoroethyl]amino]carbonyl]-2-(4-fluorophenyl)-3-quinolinepentanoic acid] | 2.1 to 20
16 | O=C(O)CCCCc1cc2cc(C(=O)N3CC[C@@H](c4ccccc4)C3)ccc2nc1-c1ccccc1 [Compound 1i, 2-phenyl-6-[(3(S)-phenyl-1-pyrrolidinyl)carbonyl]-3-quinolinepentanoic acid] | 2.1 to 20
17 | O=C(O)CCCCc1nc2cc(C(=O)NCc3cccc(Cl)c3)ccc2cc1-c1ccccc1 [Compound 4, 5-(7-(3-chlorobenzylcarbamoyl)-3-phenylquinolin-2-yl)pentanoic acid] | 0.1 to 2
18 | O=C(O)CCCCc1cc2cc(C(=O)N[C@@H]3CCCc4ccc(F)cc43)cnc2nc1-c1ccc(F)cc1 [Compound 6H, 2-(4-fluorophenyl)-6-[[(7-fluoro-1,2,3,4-tetrahydro-1(R)-naphthalenyl)amino]carbonyl]-1,8-naphthyridine-3-pentanoic acid] | 20.1 to 200
19 | O=C(O)CCCCc1cc2cc(C(=O)N[C@H]3CCCc4ccc(F)cc43)cnc2nc1-c1ccc(F)cc1 [Compound 6o, 2-(4-fluorophenyl)-6-[[(7-fluoro-1,2,3,4-tetrahydro-1(S)-naphthalenyl)amino]carbonyl]-1,8-naphthyridine-3-pentanoic acid] | 20.1 to 200
20 | O=C(O)CCCCc1cc2cc(C(=O)NCc3ccc(Cl)cc3)ccc2nc1-c1ccccc1 [Compound 2B, 6-[[[(4-chlorophenyl)methyl]amino]carbonyl]-2-phenyl-3-quinolinepentanoic acid] | 2.1 to 20
21 | N#Cc1ccc([C@H](NC(=O)c2ccc3nc(-c4ccc(F)cc4)c(CCCCC(=O)O)cc3c2)C(F)(F)F)cc1 [Compound 5T] | 20.1 to 200
22 | CN(Cc1ccccc1)C(=O)c1ccc2nc(-c3ccccc3)c(CCCCC(=O)O)cc2c1 [Compound 1U, 6-[[methyl(phenylmethyl)amino]carbonyl]-2-phenyl-3-quinolinepentanoic acid] | 2.1 to 20
23 | C[C@@H](NC(=O)c1ccc2cc(-c3ccccc3)c(CCCCC(=O)O)nc2c1)c1ccc(Cl)cc1 [Compound 3F, 7-[[[1(R)-(4-chlorophenyl)ethyl]amino]carbonyl]-3-phenyl-2-quinolinepentanoic acid] | 0.1 to 2
24 | O=C(O)CCCCc1cc2cc(C(=O)N[C@H]3CCc4cc(Cl)ccc43)ccc2nc1-c1ccc(F)cc1 [Compound 5R, 6-[[(5-chloro-2,3-dihydro-1H-inden-1(S)-yl)amino]carbonyl]-2-(4-fluorophenyl)-3-quinolinepentanoic acid] | 2.1 to 20
25 | COc1ccc([C@H](NC(=O)c2cnc3nc(-c4ccc(F)cc4)c(CCCCC(=O)O)cc3c2)C(F)(F)F)cc1 [Compound 6P, 2-(4-fluorophenyl)-6-[[[2,2,2-trifluoro-1(S)-(4-methoxyphenyl)ethyl]amino]carbonyl]-1,8-naphthyridine-3-pentanoic acid] | 20.1 to 200
26 | O=C(O)CCCCc1cc2cc(C(=O)NCc3ccc(C(F)(F)F)nc3)ccc2nc1-c1ccccc1 [Compound 1V, 2-phenyl-6-[[[[6-(trifluoromethyl)-3-pyridinyl]methyl]amino]carbonyl]-3-quinolinepentanoic acid] | 2.1 to 20
27 | C[C@@H](NC(=O)c1ccc2nc(-c3ccccc3)c(CCCCC(=O)O)cc2c1)c1ccc(Cl)cc1 [Compound 1AD, 6-[[[1(R)-(4-chlorophenyl)ethyl]amino]carbonyl]-2-phenyl-3-quinolinepentanoic acid] | 2.1 to 20

same assay, conditions: values in text

Row | SMILES | Ki [nM]
28 | O=C(O)CCCCc1cc2cc(C(=O)NCc3cccnc3)ccc2nc1-c1ccccc1 [Compound 1X, 2-phenyl-6-[[(3-pyridinylmethyl)amino]carbonyl]-3-quinolinepentanoic acid] | 28.9
29 | O=C(O)CCCCc1cc2cc(C(=O)N[C@@H]3CCc4cc(Cl)ccc43)ccc2nc1-c1ccc(F)cc1 [Compound 5o, 6-[[(5-chloro-2,3-dihydro-1H-inden-1(R)-yl)amino]carbonyl)-2-(4-fluorophenyl)-3-quinolinepentanoic acid] | 2.7
30 | O=C(O)CCCCc1cc2cc(C(=O)N[C@@H]3CCCc4ccc(F)cc43)cnc2nc1-c1ccc(F)cc1 [Compound 6H, 2-(4-fluorophenyl)-6-[[(7-fluoro-1,2,3,4-tetrahydro-1(R)-naphthalenyl)amino]carbonyl]-1,8-naphthyridine-3-pentanoic acid] | 161
31 | C[C@@H](NC(=O)c1ccc2nc(-c3ccccc3)c(CCCCC(=O)O)cc2c1)c1ccc(Cl)cc1 [Compound 1AD, 6-[[[1(R)-(4-chlorophenyl)ethyl]amino]carbonyl]-2-phenyl-3-quinolinepentanoic acid] | 3.5
